Biological target: T1, human TRH-DE (Homo sapiens, UniProt Q9UKU6)
T1 construct: expressed in transfected cells; host or cells: Expi 293 cells (transient expression), membrane fraction
T1 sequence (Q9UKU6 1-1069): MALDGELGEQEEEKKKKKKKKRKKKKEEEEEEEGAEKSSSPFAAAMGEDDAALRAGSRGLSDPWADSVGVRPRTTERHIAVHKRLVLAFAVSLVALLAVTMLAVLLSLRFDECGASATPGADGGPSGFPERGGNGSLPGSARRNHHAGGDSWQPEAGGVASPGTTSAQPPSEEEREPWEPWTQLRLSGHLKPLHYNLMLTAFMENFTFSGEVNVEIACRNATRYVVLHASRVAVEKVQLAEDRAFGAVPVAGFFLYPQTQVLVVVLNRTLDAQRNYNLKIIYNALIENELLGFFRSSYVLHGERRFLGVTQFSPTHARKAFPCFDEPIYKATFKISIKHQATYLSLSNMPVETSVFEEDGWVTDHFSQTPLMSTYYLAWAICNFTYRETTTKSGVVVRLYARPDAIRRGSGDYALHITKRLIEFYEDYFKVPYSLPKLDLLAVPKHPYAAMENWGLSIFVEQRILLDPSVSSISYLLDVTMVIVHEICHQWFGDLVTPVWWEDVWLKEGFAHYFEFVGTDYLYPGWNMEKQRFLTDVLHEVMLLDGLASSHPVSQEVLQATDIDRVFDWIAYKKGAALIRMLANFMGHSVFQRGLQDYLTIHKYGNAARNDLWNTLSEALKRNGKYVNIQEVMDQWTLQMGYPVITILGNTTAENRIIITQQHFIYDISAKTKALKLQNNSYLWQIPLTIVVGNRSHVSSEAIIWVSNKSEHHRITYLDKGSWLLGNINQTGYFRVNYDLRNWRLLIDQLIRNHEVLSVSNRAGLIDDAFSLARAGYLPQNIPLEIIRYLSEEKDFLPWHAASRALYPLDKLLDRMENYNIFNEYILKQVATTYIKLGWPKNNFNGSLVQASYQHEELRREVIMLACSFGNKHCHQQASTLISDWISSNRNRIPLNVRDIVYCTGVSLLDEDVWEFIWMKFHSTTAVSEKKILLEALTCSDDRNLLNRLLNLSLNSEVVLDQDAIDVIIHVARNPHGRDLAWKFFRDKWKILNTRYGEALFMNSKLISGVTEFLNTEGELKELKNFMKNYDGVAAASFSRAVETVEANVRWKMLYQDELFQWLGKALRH
Experiment: TRH-DE inhibition test (RapidFire MS measurement of product Cyclo (His-Pro))
Format: biochemical
Settings: membrane fraction of Expi 293 cells expressing human TRH-DE; 10 μM TRH substrate; room temperature, 2 hours; 16-point concentration test
Summary of the method: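 Membrane fraction from Expi 293 cells transiently expressing human TRH-DE, at 4 μg/ml in phosphate buffer pH 7.4 with 200 μM bacitracin, reacted with compound and 10 μM substrate for 2 h at room temperature. Cyclo(His-Pro) measured by RapidFire MS against an isotope internal standard. IC50 from 16-point curves.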

SMILES	IC50
CC[C@@H]1COc2ncc(F)cc2C(=O)N1C1CC2(C1)CN(S(=O)(=O)c1ccccc1F)C2 [Example 41]	70 nM
CC[C@@H]1COc2nc(F)ccc2C(=O)N1C1CC2(C1)CN(S(=O)(=O)c1ccccc1F)C2 [Example 43]	32 nM
C[C@@H]1COc2nc(C(F)(F)F)ncc2C(=O)N1C1CC2(C1)CN(S(=O)(=O)c1ccccc1F)C2 [Example 44]	14 nM
C[C@@H]1COc2cc(C3CC3)ncc2C(=O)N1C1CC2(C1)CN(S(=O)(=O)c1ccccc1[N+](=O)[O-])C2 [Example 53]	42 nM
C[C@@H]1COc2nc(C(F)(F)F)ccc2C(=O)N1C1CC2(C1)CN(S(=O)(=O)c1ccccc1F)C2 [Example 56]	8 nM
C[C@@H]1COc2nc(C(F)(F)F)ccc2C(=O)N1C1CC2(C1)CN(S(=O)(=O)c1ccccc1[N+](=O)[O-])C2 [Example 57]	253 nM
Cc1nc2c(cc1F)C(=O)N(C1CC3(C1)CN(S(=O)(=O)c1ccccc1[N+](=O)[O-])C3)[C@H](C)CO2 [Example 58]	180 nM
O=C1c2cccnc2OCC2(CC2)N1C1CC2(C1)CN(S(=O)(=O)c1ccccc1F)C2 [Example 61]	653 nM
O=C1c2ccc(C(F)(F)F)nc2OCC2(CC2)N1C1CC2(C1)CN(S(=O)(=O)c1ccccc1F)C2 [Example 62]	393 nM
O=C1c2cccnc2CC(C(F)(F)F)N1C1CC2(C1)CN(S(=O)(=O)c1ccccc1F)C2 (centres unmarked) [Example 68]	120 nM
CCn1c2ccccc2c(=O)n1C1CC2(C1)CN(S(=O)(=O)c1cc(C)ccc1F)C2 [Example 69]	66 nM
Cc1ccc(F)c(S(=O)(=O)N2CC3(CC(N4C(=O)c5cccnc5OCC4C)C3)C2)c1 (centres unmarked) [Example 70, 4-[2-(2-fluoro-5-methyl-phenyl)sulfonyl-2-azaspiro[3.3]heptan-6-yl]-3-methyl-2,3-dihydropyrido[3,2-f][1,4]oxazepin-5-one]	25 nM
CC1COc2ncccc2C(=O)N1C1CC2(C1)CN(S(=O)(=O)c1ccccc1)C2 (centres unmarked) [Example 84, 4-[2-(benzenesulfonyl)-2-azaspiro[3.3]heptan-6-yl]-3-methyl-2,3-dihydropyrido[3,2-f][1,4]oxazepin-5-one]	85 nM
CC1C=Cc2nc(C(F)(F)F)ccc2C(=O)N1C1CC2(C1)CN(S(=O)(=O)c1ccccc1F)C2 (centres unmarked) [Example 111, 6-[2-(2-fluorophenyl)sulfonyl-2-azaspiro[3.3]heptan-6-yl]-7-methyl-2-(trifluoromethyl)-7H-pyrido[3,2-c]azepin-5-one]	60 nM
Cc1nc2c(s1)C(=O)N(C1CC3(C1)CN(S(=O)(=O)c1ccccc1F)C3)[C@H](C)C=C2 [Example 116]	116 nM
C[C@@H]1C=Cc2nc(C(C)(F)F)sc2C(=O)N1C1CC2(C1)CN(S(=O)(=O)c1ccccc1F)C2 [Example 117]	46 nM
C[C@@H]1C=Cc2nc(C3(F)CC3)sc2C(=O)N1C1CC2(C1)CN(S(=O)(=O)c1ccccc1F)C2 [Example 121]	21 nM
C[C@@H]1C=Cc2nc([C@@H]3C[C@@H]3F)sc2C(=O)N1C1CC2(C1)CN(S(=O)(=O)c1ccccc1F)C2 [Example 122]	15 nM
C[C@@H]1C=Cc2nc([C@H]3C[C@H]3F)sc2C(=O)N1C1CC2(C1)CN(S(=O)(=O)c1ccccc1F)C2 [Example 123]	15 nM
C[C@@H]1C=Cc2nc(C3(C(F)(F)F)CC3)sc2C(=O)N1C1CC2(C1)CN(S(=O)(=O)c1ccccc1F)C2 [Example 124]	17 nM
Cc1nsc2c1C(=O)N(C1CC3(C1)CN(S(=O)(=O)c1ccccc1F)C3)[C@H](C)C=C2 [Example 127]	21 nM
CCCCN(C)c1cc2c(cn1)C(=O)N(C1CC3(C1)CN(S(=O)(=O)c1ccccc1F)C3)[C@H](C)CO2 [Example 135]	1 nM

Further lines, results first:

IC50	SMILES
5 nM	C[C@@H]1COc2nc(Cl)cnc2C(=O)N1C1CC2(C1)CN(S(=O)(=O)c1ccccc1F)C2 [Example 40, (7R)-3-chloro-8-[2-(2-fluorophenyl)sulfonyl-2-azaspiro[3.3]heptan-6-yl]-7-methyl-6,7-dihydropyrazino[2,3-f][1,4]oxazepin-9-one]
9 nM	C[C@@H]1COc2nc(F)ccc2C(=O)N1C1CC2(C1)CN(S(=O)(=O)c1ccccc1F)C2 [Example 42]
54 nM	C[C@@H]1COc2nc(C3CC3)ccc2C(=O)N1C1CC2(C1)CN(S(=O)(=O)c1ccccc1[N+](=O)[O-])C2 [Example 55]
49 nM	O=C1c2cccnc2OC[C@@H](C2CC2)N1C1CC2(C1)CN(S(=O)(=O)c1ccccc1F)C2 [Example 60]
23 nM	Cc1nc2c(s1)C(=O)N(C1CC3(C1)CN(S(=O)(=O)c1ccccc1F)C3)[C@H](C)CC2 [Example 90]
8 nM	C[C@@H]1CCc2nc(C(C)(F)F)sc2C(=O)N1C1CC2(C1)CN(S(=O)(=O)c1ccccc1F)C2 [Example 91]
4 nM	C[C@@H]1CCc2nc([C@H]3C[C@H]3F)sc2C(=O)N1C1CC2(C1)CN(S(=O)(=O)c1ccccc1F)C2 [Example 95]
2 nM	C[C@@H]1CCc2nc([C@@H]3C[C@@H]3F)sc2C(=O)N1C1CC2(C1)CN(S(=O)(=O)c1ccccc1F)C2 [Example 96]
3 nM	C[C@@H]1CCc2nc(C3(C(F)(F)F)CC3)sc2C(=O)N1C1CC2(C1)CN(S(=O)(=O)c1ccccc1F)C2 [Example 97]
16 nM	Cc1snc2c1CC[C@@H](C)N(C1CC3(C1)CN(S(=O)(=O)c1ccccc1F)C3)C2=O [Example 99]
16 nM	Cc1nsc2c1C(=O)N(C1CC3(C1)CN(S(=O)(=O)c1ccccc1F)C3)[C@H](C)CC2 [Example 100]
14 nM	C[C@@H]1CCc2oc(C3CC3)nc2C(=O)N1C1CC2(C1)CN(S(=O)(=O)c1ccccc1F)C2 [Example 101]
10 nM	Cc1onc2c1CC[C@@H](C)N(C1CC3(C1)CN(S(=O)(=O)c1ccccc1F)C3)C2=O [Example 103]
14 nM	CC1CCc2c(noc2C2CC2)C(=O)N1C1CC2(C1)CN(S(=O)(=O)c1ccccc1F)C2 (centres unmarked) [Example 104]
14 nM	Cc1noc2c1C(=O)N(C1CC3(C1)CN(S(=O)(=O)c1ccccc1F)C3)[C@H](C)CC2 [Example 105]
3 nM	C[C@@H]1CCc2nc(C3(F)CC3)sc2C(=O)N1C1CC2(C1)CN(S(=O)(=O)c1ccccc1F)C2 [Example 109, (6R)-2-(1-fluorocyclopropyl)-5-[2-(2-fluorophenyl)sulfonyl-2-azaspiro[3.3]heptan-6-yl]-6-methyl-7,8-dihydro-6H-thiazolo[5,4-c]azepin-4-one]
4 nM	CC(C)c1nc2c(s1)C(=O)N(C1CC3(C1)CN(S(=O)(=O)c1ccccc1F)C3)[C@H](C)CC2 [Example 110, (6R)-5-[2-(2-fluorophenyl)sulfonyl-2-azaspiro[3.3]heptan-6-yl]-2-isopropyl-6-methyl-7,8-dihydro-6H-thiazolo[5,4-c]azepin-4-one]
24 nM	Cc1snc2c1C=C[C@@H](C)N(C1CC3(C1)CN(S(=O)(=O)c1ccccc1F)C3)C2=O [Example 126]
224 nM	C[C@@H]1C=Cc2oc(C3CC3)nc2C(=O)N1C1CC2(C1)CN(S(=O)(=O)c1ccccc1F)C2 [Example 128]
136 nM	Cc1onc2c1C=C[C@@H](C)N(C1CC3(C1)CN(S(=O)(=O)c1ccccc1F)C3)C2=O [Example 130]
131 nM	Cc1noc2c1C(=O)N(C1CC3(C1)CN(S(=O)(=O)c1ccccc1F)C3)[C@H](C)C=C2 [Example 132]
4 nM	CC1C2C(c3nc(C4CC4)sc3C(=O)N1C1CC3(C1)CN(S(=O)(=O)c1ccccc1F)C3)C2(F)F (stereo not drawn) [Example 133, (2R*,4S*,5R*)-10-cyclopropyl-3,3-difluoro-6-[2-(2-fluorophenyl)sulfonyl-2-azaspiro[3.3]heptan-6-yl]-5-methyl-9-thia-6,11-diazatricyclo[6.3.0.02.4]undec-1(8),10-dien-7-one]
2 nM	C[C@@H]1COc2cc(N3CCOCC3)ncc2C(=O)N1C1CC2(C1)CN(S(=O)(=O)c1ccccc1F)C2 [Example 134, (3R)-4-[2-(2-fluorophenyl)sulfonyl-2-azaspiro[3.3]heptan-6-yl]-3-methyl-8-morpholino-2,3-dihydropyrido[3,4-f][1,4]oxazepin-5-one]
1 nM	C[C@@H]1COc2cc(NC3CCCC3)ncc2C(=O)N1C1CC2(C1)CN(S(=O)(=O)c1ccccc1F)C2 [Example 136]
1 nM	C[C@@H]1COc2cc(N(C)C3CCCC3)ncc2C(=O)N1C1CC2(C1)CN(S(=O)(=O)c1ccccc1F)C2 [Example 137]
